Assay results reported in ChEMBL document CHEMBL3039007, “Structure-based identification of OATP1B1/3 inhibitors” (Mol Pharmacol, 2013).

Tests used:
[1] = molecular target: T1, Solute carrier organic anion transporter family member 1B1 (Homo sapiens, UniProt Q9Y6L6); details: chinese hamster, cho, 10 µM
T1 sequence (Q9Y6L6 whole entry): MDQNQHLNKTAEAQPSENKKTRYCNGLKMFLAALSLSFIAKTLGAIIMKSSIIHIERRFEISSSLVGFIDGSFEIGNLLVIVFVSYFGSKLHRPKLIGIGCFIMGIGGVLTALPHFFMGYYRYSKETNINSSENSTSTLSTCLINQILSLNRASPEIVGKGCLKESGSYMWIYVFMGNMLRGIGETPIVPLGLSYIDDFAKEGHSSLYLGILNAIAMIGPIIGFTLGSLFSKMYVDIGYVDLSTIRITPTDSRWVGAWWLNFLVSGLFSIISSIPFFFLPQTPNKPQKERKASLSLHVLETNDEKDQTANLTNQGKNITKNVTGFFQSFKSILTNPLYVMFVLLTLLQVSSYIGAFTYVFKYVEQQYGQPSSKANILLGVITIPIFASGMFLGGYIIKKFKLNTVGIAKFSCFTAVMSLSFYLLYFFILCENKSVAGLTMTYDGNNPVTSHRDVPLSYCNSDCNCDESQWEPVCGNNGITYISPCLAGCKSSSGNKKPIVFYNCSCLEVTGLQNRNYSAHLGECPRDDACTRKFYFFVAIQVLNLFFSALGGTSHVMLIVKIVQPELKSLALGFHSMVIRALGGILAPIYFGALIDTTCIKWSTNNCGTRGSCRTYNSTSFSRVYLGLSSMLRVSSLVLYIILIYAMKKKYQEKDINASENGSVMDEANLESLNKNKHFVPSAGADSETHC

[2] = molecular target: T2, Solute carrier organic anion transporter family member 1B3 (Homo sapiens, UniProt Q9NPD5); details: chinese hamster, cho, 10 µM
T2 sequence (Q9NPD5 whole entry): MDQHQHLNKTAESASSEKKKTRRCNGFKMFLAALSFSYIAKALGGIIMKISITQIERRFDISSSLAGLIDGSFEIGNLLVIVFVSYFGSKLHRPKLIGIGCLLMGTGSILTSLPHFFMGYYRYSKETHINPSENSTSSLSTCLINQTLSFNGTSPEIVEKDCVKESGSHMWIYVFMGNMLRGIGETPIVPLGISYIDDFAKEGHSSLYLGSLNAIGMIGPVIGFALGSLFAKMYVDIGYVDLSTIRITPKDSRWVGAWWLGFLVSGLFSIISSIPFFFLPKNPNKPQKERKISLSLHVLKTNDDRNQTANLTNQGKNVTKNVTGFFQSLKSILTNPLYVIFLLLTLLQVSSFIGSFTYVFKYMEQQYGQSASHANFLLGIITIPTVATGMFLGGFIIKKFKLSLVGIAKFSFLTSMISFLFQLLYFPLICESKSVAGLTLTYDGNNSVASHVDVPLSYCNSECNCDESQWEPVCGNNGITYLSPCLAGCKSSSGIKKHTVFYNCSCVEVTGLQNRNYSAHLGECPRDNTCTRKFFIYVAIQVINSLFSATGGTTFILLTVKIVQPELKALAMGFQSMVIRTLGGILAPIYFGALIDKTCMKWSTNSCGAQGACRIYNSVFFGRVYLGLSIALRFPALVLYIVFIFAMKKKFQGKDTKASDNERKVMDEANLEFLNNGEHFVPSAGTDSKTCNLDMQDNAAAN

Structure (SMILES)	residual activity [1]	residual activity [2]
COc1cc(N)c(Cl)cc1C(=O)NC1CCN(Cc2ccccc2)CC1.O=C(O)/C=C\C(=O)O [CLEBOPRIDE MALEATE]	84.15%	124.4%
CC[C@H](CC[C@@H](C)[C@H]1CC[C@H]2[C@@H]3CC[C@H]4C[C@@H](O)CC[C@]4(C)[C@H]3CC[C@]12C)C(C)C [STIGMASTANOL]	77.21%	102.9%
O=C1C=C2C=C[C@@H]3C[C@@]2(O1)[C@H]1CCCCN31 [SECURININE]	92.42%	115.4%
CC(=O)N[C@H]1[C@H]([C@@H](O)[C@H](O)CO)O[C@@](O)(C(=O)O)C[C@@H]1O	93.14%	91.96%
COC(=O)c1cc(O)c(=O)c2c(O)c(O)ccc2c1 [METHYL 7-DESHYDROXYPYROGALLIN-4-CARBOXYLATE]	48.16%	80.24%
C[C@H]1C[C@@H]2[C@H]([C@@H](O)C[C@@]3(C)[C@H]2CC[C@]3(O)C(=O)CO)[C@@]2(C)C=CC(=O)C=C12 [METHYLPREDNISOLONE]	79.56%	93.74%
COC(=O)[C@]1(C)CC[C@]2(C)CC[C@]3(C)C4=CCc5c(cc(OC(C)=O)c(OC(C)=O)c5C)[C@]4(C)CC[C@@]3(C)[C@@H]2C1 [PRISTIMEROL DIACETATE]	94.14%	83.45%
O=C1CN(/N=C/c2ccc([N+](=O)[O-])o2)C(=O)N1 [NITROFURANTOIN]	97.62%	100.8%
Cc1scc2c1N(C(=O)CN1CCN(C)CC1)c1ccccc1NC2=O.Cl [TELENZEPINE HYDROCHLORIDE]	99.27%	93.24%
O=c1c(O)c(-c2ccc(O)c(O)c2)oc2cc(O)cc(O)c12 [QUERCETIN]	47.09%	122.6%
C[C@@H]1O[C@@H](Oc2c(-c3ccc(O)c(O)c3)oc3cc(O)cc(O)c3c2=O)[C@H](O)[C@H](O)[C@H]1O [QUERCITRIN]	107.2%	114.6%
CC(=O)O[C@H]1C[C@@]2(C)[C@@H](C[C@@H](O)[C@H]3[C@@]4(C)CC[C@@H](O)[C@@H](C)[C@@H]4CC[C@@]32C)/C1=C(\CCC=C(C)C)C(=O)O [FUSIDIC ACID]	39.52%	58.34%
O=C(O)CCCc1ccc(N(CCCl)CCCl)cc1 [CHLORAMBUCIL]	123.9%	102.7%
COc1ccc(-c2coc3cc(O)ccc3c2=O)c(O)c1O [KOPARIN]	88.35%	86.85%
O=C(O)c1cccnc1C(=O)O [QUINOLINIC ACID]	103.9%	104.2%
COc1ccc2c(c1)OCc1c-2oc2cc(OC)ccc12 [DEHYDROVARIABILIN]	136.9%	89.07%
CSCCC(NC=O)C(=O)NC(C)C(=O)O (configuration not stated) [N-FORMYLMETHIONYLALANINE]	100.9%	108.8%
CC1=NCCc2c1[nH]c1cc(O)ccc21.Cl [HARMALOL HYDROCHLORIDE]	84.87%	106.1%
Cc1cc(O)cc(=O)o1	87.56%	97.35%
COc1cc(-c2coc3cc(OC)c(OC)c(OC)c3c2=O)cc(OC)c1OC [IRIGENIN TRIMETHYL ETHER]	216.2%	91.27%
C=C1[C@@H]2CC[C@@]3(C)[C@H](c4ccoc4)OC(=O)C[C@]13O[C@H]1CC(=O)C(C)(C)[C@H](CC(=O)OC)[C@]12C [METHYLANGOLENSATE]	20.27%	33.7%
CC(C)c1ccc2c(c1O)CC[C@H]1C3=C(CC[C@]21C)C(=O)OC3 [TRIPTOPHENOLIDE]	120.3%	110.8%
C[C@@](Cc1ccc(O)c(O)c1)(NN)C(=O)O.O [CARBIDOPA]	134.5%	113.1%

Structure (SMILES)	residual activity [1]	residual activity [2]
CC(=O)O[C@]1(C(C)=O)CC[C@H]2[C@@H]3C=C(Cl)C4=CC(=O)CC[C@]4(C)[C@H]3CC[C@@]21C [CHLORMADINONE ACETATE]	9.748%	24.36%
C=C[C@H]1C[N@@]2CC[C@H]1C[C@@H]2[C@@H](O)c1ccnc2ccccc12 [CINCHONINE]	122.3%	105.3%
C[n+]1cccc(C(=O)[O-])c1 [TRIGONELLINE]	111.6%	98.34%
C[C@H](CCC(=O)O)[C@H]1CC[C@H]2[C@@H]3C(=O)C[C@@H]4CC(=O)CC[C@]4(C)[C@H]3CC(=O)[C@]12C [DEHYDROCHOLIC ACID]	80.16%	88.23%
COC(=O)C[C@H]1C(C)(C)[C@H](O)[C@@H]2CC3=C4CC(O)O[C@@H](c5ccoc5)[C@@]4(C)CCC3[C@]1(C)C2=O (stereo partly drawn) [3,16-DIDEOXYMEXICANOLIDE-3alpha-DIOL]	67.63%	96.33%
COC(=O)[C@H](c1ccccc1Cl)N1CCc2sccc2C1.O=S(=O)(O)O [CLOPIDOGREL BISULFATE]	145.3%	96.14%
O=c1cc(-c2ccc(O)cc2)oc2cc(O)cc(O)c12 [APIGENIN]	84.2%	134.2%
O=C1C=C2C(=CCOC2O)O1 (configuration not stated) [PATULIN]	81.5%	79.09%
O=C(O[C@@H]1Cc2c(O)cc(O)cc2O[C@@H]1c1cc(O)c(=O)c2c(O)c(O)cc([C@H]3Oc4cc(O)cc(O)c4C[C@H]3O)c2c1)c1cc(O)c(O)c(O)c1 [THEAFLAVIN MONOGALLATES]	89.76%	103.8%
CCOC(=O)c1c(C)cc(O)cc1O [ORSELLINIC ACID, ETHYL ESTER]	116.8%	105.8%
O=c1cc(-c2ccccc2)oc2cc(O)c(O)c(O)c12 [BAICALEIN]	91.06%	90.2%
CN(C)CCOC(=O)C(c1ccccc1)C1(O)CCCC1.Cl (configuration not stated) [CYCLOPENTOLATE HYDROCHLORIDE]	87.23%	100.2%
NC1(C(=O)O)CCCC1 [CYCLOLEUCINE]	99.09%	108.5%
CNC(=O)Oc1ccccc1OC(C)C [PROPOXUR]	104%	109.6%
OCC(O)Cc1ccc2c(c1)OCO2 (configuration not stated) [SAFROLGLYCOL]	82.94%	83.74%
CC(C)=CCC[C@](C)(O)[C@@H]1CC=C(C)CC1 [LEVOMENOL]	83.39%	97.78%
O=c1oc2ccccc2cc1O [3-HYDROXYCOUMARIN]	126.8%	116.7%
CC1(C)C2CC(=O)O[C@@]3(C)C4=CC(=O)O[C@@H](c5ccoc5)[C@]4(C)CCC3[C@@]2(C)C=C[C@H]1O (some centres not stated) [DEOXYANDIROBIN LACTONE]	29.53%	53.06%
C[C@@]12C[C@@]3(O)O[C@@H](O1)[C@]1(COC(=O)c4ccccc4)[C@H]3C[C@@]12O[C@@H]1O[C@H](CO)[C@@H](O)[C@H](O)[C@H]1O [PAEONIFLORIN]	109.5%	101.8%
C=C(C)C1(O)OC(=O)C=C1OC (configuration not stated) [PENICILLIC ACID]	110.4%	96.2%
COc1cc(O)c2c(=O)c(O)c(-c3ccc(O)c(O)c3)oc2c1 [RHAMNETIN]	90.81%	99.02%
CC(C)(C)CC(C)(C)c1ccc(O)c(Cc2ccc(Cl)cc2Cl)c1 [CLOFOCTOL]	77.9%	76.53%
CCC(=O)NCC[C@@H]1CCc2ccc3c(c21)CCO3 [RAMELTEON]	127.6%	113.4%
